Results from ChEMBL document CHEMBL3632608, “Effects of alkyl side chains and terminal hydrophilicity on vitamin D receptor (VDR) agonistic activity based on the diphenylpentane skeleton” (Bioorg Med Chem Lett, 2015).
Activity calls are given as the source filed them. The rule behind the calls is not given here.

Legend:
Format in all cases: cell-based
[1] = target: T1, Vitamin D3 receptor (Homo sapiens) (UniProt P11473); assay: Antagonist activity at human VDR expressed in HEK293 cells co-expressing CMX-GAL4N and TK-MH100x4-LUC assessed as inhibition of 1alpha,25(OH)2VD3-induced transcriptional activity up to 10 uM by beta-galactosidase reporter gene assay
T1 sequence (whole entry): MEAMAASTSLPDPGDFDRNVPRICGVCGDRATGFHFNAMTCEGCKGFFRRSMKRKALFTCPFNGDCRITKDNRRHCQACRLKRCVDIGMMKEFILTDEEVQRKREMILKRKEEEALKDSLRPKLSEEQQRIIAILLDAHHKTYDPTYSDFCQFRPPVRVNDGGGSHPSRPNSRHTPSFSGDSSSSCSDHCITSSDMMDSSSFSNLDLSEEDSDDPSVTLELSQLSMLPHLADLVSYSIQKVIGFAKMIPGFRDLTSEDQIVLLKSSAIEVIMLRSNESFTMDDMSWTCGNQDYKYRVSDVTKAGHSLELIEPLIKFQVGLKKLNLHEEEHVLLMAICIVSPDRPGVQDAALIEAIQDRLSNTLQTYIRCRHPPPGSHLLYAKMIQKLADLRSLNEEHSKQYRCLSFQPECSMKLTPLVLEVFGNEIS

Vitamin D3 receptor = target: T2, Vitamin D3 receptor (Homo sapiens, UniProt P11473); assay: Agonist activity at human VDR expressed in HEK293 cells co-expressing CMX-GAL4N and TK-MH100x4-LUC assessed as induction of transcriptional activity by beta-galactosidase reporter gene assay
T2 sequence (P11473 whole entry): T1 sequence (whole entry)

[2] = target: T1, Vitamin D3 receptor (Homo sapiens); assay: Agonist activity at human VDR expressed in HEK293 cells co-expressing CMX-GAL4N and TK-MH100x4-LUC assessed as induction of transcriptional activity at 10 uM by beta-galactosidase reporter gene assay relative to 1alpha,25(OH)2VD3
[3] = target: T1, Vitamin D3 receptor (Homo sapiens); assay: Agonist activity at human VDR expressed in HEK293 cells co-expressing CMX-GAL4N and TK-MH100x4-LUC assessed as induction of transcriptional activity at 3 uM by beta-galactosidase reporter gene assay relative to 1alpha,25(OH)2VD3
[4] = target: T1, Vitamin D3 receptor (Homo sapiens); assay: Agonist activity at VDR in human HL60 cells assessed as induction of cell differentiation at 10 uM by NBT reduction assay; conditions: HL-60

With `CCC(CC)(c1ccc(OC[C@@H](O)CO)c(C)c1)c1ccc(OC[C@H](O)C(C)(C)OCCCCCCCCO)c(C)c1` the inhibition [1] was “inactive”, the EC50 (Vitamin D3 receptor; read-out: EC50) was 1200 nM and the Activity [2] was 100%. It also gave an Activity [3] of 77% and an Activity [4] of 37.6%.

In the case of `CCCCCCOC(C)(C)[C@@H](O)COc1ccc(C(CC)(CC)c2ccc(OC[C@@H](O)CO)c(C)c2)cc1C`, the inhibition [1] is reported as “inactive”, the EC50 (Vitamin D3 receptor; read-out: EC50) is reported as 1500 nM and the Activity [2] is reported as 47%. The Activity [3] was 37% and the Activity [4] was 25.1%.

In the case of `CCCCCCCCOC(C)(C)[C@@H](O)COc1ccc(C(CC)(CC)c2ccc(OC[C@@H](O)CO)c(C)c2)cc1C`, the EC50 (Vitamin D3 receptor; hek293) is reported as “Not Active”.

For `CCCCCCCCOC(C)(C)[C@H](O)COc1ccc(C(CC)(CC)c2ccc(OC[C@@H](O)CO)c(C)c2)cc1C`, the EC50 (Vitamin D3 receptor; hek293) was “Not Active”.

In the case of `CCCCCCOC(C)(C)[C@H](O)COc1ccc(C(CC)(CC)c2ccc(OC[C@@H](O)CO)c(C)c2)cc1C`, the inhibition [1] is reported as “inactive”, the EC50 (Vitamin D3 receptor; read-out: EC50) is reported as greater than 10000 nM and the Activity [2] is reported as 22%. It also gave an Activity [3] of 19%.

With `CCCCCCCCCCOC(C)(C)[C@@H](O)COc1ccc(C(CC)(CC)c2ccc(OC[C@@H](O)CO)c(C)c2)cc1C` the EC50 (Vitamin D3 receptor; hek293) was “Not Active”.

In the case of `CCC(CC)(c1ccc(OC[C@@H](O)CO)c(C)c1)c1ccc(OC[C@@H](O)C(C)(C)OCCCCCCCCO)c(C)c1`, the inhibition [1] is reported as “inactive”, the EC50 (Vitamin D3 receptor; read-out: EC50) is reported as greater than 3000 nM and the Activity [3] is reported as 40%. The Activity [4] was 18.8%.

In the case of `CCCCCCCCCCOC(C)(C)[C@H](O)COc1ccc(C(CC)(CC)c2ccc(OC[C@@H](O)CO)c(C)c2)cc1C`, the EC50 (Vitamin D3 receptor; hek293) is reported as “Not Active”.
